Assay results from PMC11012124, “Synthesis of Novel Triazine-Based Chalcones and 8,9-dihydro-7H-pyrimido[4,5-b][1,4]diazepines as Potential Leads in the Search of Anticancer, Antibacterial and Antifungal Agents” (International Journal of Molecular Sciences, 2024).

What was measured:
MALME-3M = assay: cells; details: Homo sapiens, 48 h; for CC50: read-out: LC50
60 cancer cell lines = assay: NCI-60 one-dose screen (10 μM); assay type: cell-based; details: Homo sapiens; one dose of 10 μM, mean over 60 cancer cell lines; read-out: Mean Growth Percent (MGP)
Excerpt: Additionally, the mean of the growth percentages (MGP) of each compound against all the 60 cancer cell lines is also reported, which is used as one of the selection criteria to continue with tests at five concentration doses.

TK-10 = assay: cells; details: Homo sapiens, TK-10, 48 h; for CC50: read-out: LC50
MDA-MB-435 = assay: cells; details: Homo sapiens, MDA-MB-435, 48 h; for CC50: read-out: LC50
RXF 393 = assay: cells; details: Homo sapiens, RXF 393, 48 h; for CC50: read-out: LC50
OVCAR-4 = assay: cells; details: Homo sapiens, OVCAR-4, 48 h; for CC50: read-out: LC50
SK-OV-3 = assay: cells; details: Homo sapiens, SK-OV-3, 48 h; for CC50: read-out: LC50
NCI-H226 = assay: cells; details: Homo sapiens, NCI-H226, 48 h; for CC50: read-out: LC50
OVCAR-8 = assay: cells; details: Homo sapiens, OVCAR-8, 48 h; for CC50: read-out: LC50
HCT-15 = assay: cells; details: Homo sapiens, HCT-15, 48 h; for CC50: read-out: LC50
SW-620 = assay: cells; details: Homo sapiens, SW-620, 48 h; for CC50: read-out: LC50
BT-549 = assay: cells; details: Homo sapiens, BT-549, 48 h; for CC50: read-out: LC50
RPMI-8226 = assay: cells; details: Homo sapiens, RPMI-8226, 48 h; for CC50: read-out: LC50
SR = assay: cells; details: Homo sapiens, 48 h; for CC50: read-out: LC50
NCI-H23 = assay: cells; details: Homo sapiens, NCI-H23, 48 h
MCF7 = assay: cells; details: Homo sapiens, MCF7, 48 h; for CC50: read-out: LC50
ACHN = assay: cells; details: Homo sapiens, 48 h; for CC50: read-out: LC50
HOP-62 = assay: cells; details: Homo sapiens, HOP-62, 48 h; for CC50: read-out: LC50
OVCAR-5 = assay: cells; details: Homo sapiens, OVCAR-5, 48 h; for CC50: read-out: LC50
IGROV1 = assay: cells; details: Homo sapiens, IGROV-1, 48 h; for CC50: read-out: LC50
DU-145 = assay: cells; details: Homo sapiens, DU-145, 48 h; for CC50: read-out: LC50
NCI-H322M = assay: cells; details: Homo sapiens, 48 h; for CC50: read-out: LC50
SF-295 = assay: cells; details: Homo sapiens, SF-295, 48 h; for CC50: read-out: LC50
[1] = Hemolytic activity, spectrophotometric; assay type: cell-based, human; details: human, human red blood cells (huRBC), 5% hematocrit, 200 μg/mL, 37 °C
NCI/ADR-RES = assay: cells; details: Homo sapiens, 48 h; for CC50: read-out: LC50

CN(C)c1nc(NCCNS(=O)(=O)c2ccc(C(=O)/C=C/c3ccc(F)cc3)cc2)nc(N2CCOCC2)n1 [23f]
GI50 (MALME-3M): 14600 nM
CC50 (MALME-3M): 54.4 µM
activity at 10 µM (60 cancer cell lines): 27.6%
GI50 (TK-10): 15.3 µM
CC50 (TK-10): 53.8 µM
GI50 (MDA-MB-435): 11.6 µM
CC50 (MDA-MB-435): 51.9 µM
GI50 (RXF 393): 8820 nM
CC50 (RXF 393): 46.5 µM
GI50 (OVCAR-4): 11.9 µM
CC50 (OVCAR-4): 51.1 µM
GI50 (SK-OV-3): 13.8 µM
CC50 (SK-OV-3): 55.5 µM
GI50 (NCI-H226): 12.3 µM
CC50 (NCI-H226): 64.7 µM
GI50 (OVCAR-8): 14700 nM
CC50 (OVCAR-8): 54 µM
GI50 (HCT-15): 2150 nM
CC50 (HCT-15): 13.7 µM
GI50 (SW-620): 3380 nM
CC50 (SW-620): 40.8 µM
GI50 (BT-549): 15100 nM
CC50 (BT-549): 56.7 µM
GI50 (RPMI-8226): 1910 nM
CC50 (RPMI-8226): > 100 µM
GI50 (SR): 3450 nM
CC50 (SR): > 100 µM
GI50 (NCI-H23): 14.6 µM
CC50 (NCI-H23; read-out: LC50): 54.3 µM
GI50 (MCF7): 2990 nM
CC50 (MCF7): 46.7 µM
GI50 (ACHN): 13.1 µM
CC50 (ACHN): 51.4 µM
GI50 (HOP-62): 16.1 µM
CC50 (HOP-62): 61.8 µM
GI50 (OVCAR-5): 13.6 µM
CC50 (OVCAR-5): 52.6 µM
GI50 (IGROV1): 2270 nM
CC50 (IGROV1): 25.4 µM
GI50 (DU-145): 14.4 µM
CC50 (DU-145): 53.8 µM
GI50 (NCI-H322M): 13.2 µM
CC50 (NCI-H322M): 50.9 µM
GI50 (SF-295): 11.3 µM
CC50 (SF-295): 50.1 µM

Nc1nc(N)c2c(n1)NC(c1ccc(Cl)cc1)CC(c1ccc(Nc3nc(NCCO)nc(Nc4ccc(Cl)cc4)n3)cc1)=N2 (stereo not shown) [33e]
GI50 (MALME-3M): 1750 nM
activity at 10 µM (60 cancer cell lines): 30.5%
GI50 (TK-10): 10.6 µM
CC50 (TK-10): 60.4 µM
GI50 (MDA-MB-435): 1.63 µM
CC50 (MDA-MB-435): 6.2 µM
GI50 (RXF 393): 1540 nM
CC50 (RXF 393): 5.73 µM
GI50 (OVCAR-4): 1.96 µM
CC50 (OVCAR-4): 32.7 µM
GI50 (SK-OV-3): 14.8 µM
CC50 (SK-OV-3): 58.3 µM
GI50 (NCI-H226): 6.47 µM
CC50 (NCI-H226): > 100 µM
GI50 (OVCAR-8): 1570 nM
CC50 (OVCAR-8): 6.81 µM
GI50 (HCT-15): 1290 nM
CC50 (HCT-15): 6.09 µM
GI50 (SW-620): 1620 nM
CC50 (SW-620): 6.72 µM
GI50 (BT-549): 2250 nM
CC50 (BT-549): 23.5 µM
GI50 (RPMI-8226): 1440 nM
hemolysis at 24 h, 200 µg/mL [1]: 1.2%
GI50 (SR): 910 nM
CC50 (SR): > 100 µM
GI50 (MCF7): 1200 nM
CC50 (MCF7): 5.47 µM
GI50 (ACHN): 4.69 µM
CC50 (ACHN): > 100 µM
GI50 (HOP-62): 2.83 µM
CC50 (HOP-62): 34.5 µM
GI50 (OVCAR-5): 4.48 µM
CC50 (OVCAR-5): 74 µM
GI50 (NCI/ADR-RES): 4.24 µM
CC50 (NCI/ADR-RES): > 100 µM
GI50 (IGROV1): 1710 nM
CC50 (IGROV1): 7.46 µM
GI50 (DU-145): 2.22 µM
CC50 (DU-145): 22.8 µM
GI50 (NCI-H322M): 2.02 µM
CC50 (NCI-H322M): 16.9 µM
GI50 (SF-295): 1.73 µM
CC50 (SF-295): 7.76 µM

COc1cc(/C=C/C(=O)c2ccc(C)cc2)ccc1Oc1nc(NCCO)nc(N2CCOCC2)n1 [20b]
GI50 (MALME-3M): 2290 nM
CC50 (MALME-3M): > 100 µM
activity at 10 µM (60 cancer cell lines): 48.9%
GI50 (TK-10): > 100 µM
CC50 (TK-10): > 100 µM
GI50 (MDA-MB-435): 3.31 µM
CC50 (MDA-MB-435): > 100 µM
GI50 (RXF 393): 2070 nM
GI50 (OVCAR-4): 3.92 µM
CC50 (OVCAR-4): > 100 µM
GI50 (SK-OV-3): 23 µM
CC50 (SK-OV-3): > 100 µM
GI50 (NCI-H226): 6.28 µM
CC50 (NCI-H226): > 100 µM
GI50 (OVCAR-8): 1760 nM
GI50 (HCT-15): 1780 nM
CC50 (HCT-15): > 100 µM
GI50 (SW-620): 1640 nM
CC50 (SW-620): > 100 µM
GI50 (BT-549): 1620 nM
GI50 (RPMI-8226): 1720 nM
CC50 (RPMI-8226): > 100 µM
hemolysis at 24 h, 200 µg/mL [1]: 3.3%
GI50 (SR): 1060 nM
CC50 (SR): > 100 µM
GI50 (MCF7): 1500 nM
CC50 (MCF7): > 100 µM
GI50 (ACHN): 1.94 µM
GI50 (HOP-62): 16.6 µM
CC50 (HOP-62): > 100 µM
GI50 (OVCAR-5): 3.22 µM
CC50 (OVCAR-5): > 100 µM
GI50 (NCI/ADR-RES): 2.08 µM
CC50 (NCI/ADR-RES): > 100 µM
GI50 (IGROV1): 3100 nM
CC50 (IGROV1): > 100 µM
GI50 (DU-145): 3.79 µM
CC50 (DU-145): > 100 µM
GI50 (NCI-H322M): 6.24 µM
CC50 (NCI-H322M): > 100 µM
CC50 (SF-295): > 100 µM
